Test [1] deals with T1, KDR (Homo sapiens, UniProt P35968). The experiment in a line: KDR HTRF in vitro kinase assay. The class given is biochemical. Also on record: purified enzyme (His6-KDR 789-1354, MW 63 kD); His6 (N). The note with it: 1 mM ATP; read-out: KDR enzyme inhibition data (Ki). The method, boiled down:
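His6-KDR 789-1354 (7 ng/well) with 0.5 μM biotinylated peptide substrate and 1 mM ATP in HEPES pH 7.1, MgCl2/MnCl2, 60 min at room temperature. EDTA-quenched, detected by streptavidin-XL-665 plus Eu-kryptate anti-phosphotyrosine HTRF after 3 h; IC50 from 620/665 nm ratio.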
Target sequence in this assay (P35968 789-1354): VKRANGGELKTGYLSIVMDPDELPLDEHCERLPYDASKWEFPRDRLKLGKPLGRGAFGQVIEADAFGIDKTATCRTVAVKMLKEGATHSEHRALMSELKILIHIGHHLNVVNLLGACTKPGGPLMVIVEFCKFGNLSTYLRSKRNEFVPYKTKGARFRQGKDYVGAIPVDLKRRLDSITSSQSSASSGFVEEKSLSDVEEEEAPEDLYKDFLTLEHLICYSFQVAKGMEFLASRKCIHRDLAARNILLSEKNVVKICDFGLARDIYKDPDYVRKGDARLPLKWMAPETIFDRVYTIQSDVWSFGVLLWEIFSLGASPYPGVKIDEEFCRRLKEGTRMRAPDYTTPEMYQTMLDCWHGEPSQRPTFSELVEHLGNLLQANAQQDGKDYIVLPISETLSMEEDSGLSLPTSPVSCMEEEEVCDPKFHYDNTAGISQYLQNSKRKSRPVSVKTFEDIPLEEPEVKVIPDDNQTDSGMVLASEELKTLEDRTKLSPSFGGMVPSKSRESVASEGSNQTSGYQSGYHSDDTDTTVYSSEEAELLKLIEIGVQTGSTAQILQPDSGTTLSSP
A general note: In TR-FRET formats the signal depends on donor and acceptor labels being close together.

The subject of another test is NCI-H1299 cells. Put plainly: Induction of polyploidy in H1299. The note with it: NCI-H1299, 48 hours; for EC15: Homo sapiens, read-out: EC15 (concentration of inhibitor necessary to induce polyploidy in 15% of cells). The class given is cell-based, Human. A digest of the protocol: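 Potency is given as EC15, the inhibitor concentration giving 15% polyploid cells, from log dose-response least-squares analysis. Polyploid cells (nuclear area >750 μ^2, ≥4N) were counted by Hoechst high-content microscopy. H1299 cells had been exposed for 48 h at 37 C in duplicate, then fixed in 3% formalin.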

The target in test [2] is T1, KDR. Put plainly: KDR cellular assay (KDR receptor phosphorylation ELISA). The class given is cell-based. Also on record: expressed in transfected cells; host or cells: 3T3 (embryonic mouse) cells. The note with it: KDR transfected 3T3 (embryonic mouse) cells, VEGF stimulated; read-out: IC50 inhibition of KDR phosphorylation. A digest of the protocol: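 Phospho-KDR measured by capture ELISA (anti-KDR coat, biotinylated detection, streptavidin-HRP, 450 nm) in lysates of KDR-expressing 3T3 mouse fibroblasts. Cells saw compound 20 min at 37° C before 10 min VEGF challenge (100 ng/ml solution); IC50 from non-linear regression of half-log dose series.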
Target sequence in this assay (P35968 20-1356): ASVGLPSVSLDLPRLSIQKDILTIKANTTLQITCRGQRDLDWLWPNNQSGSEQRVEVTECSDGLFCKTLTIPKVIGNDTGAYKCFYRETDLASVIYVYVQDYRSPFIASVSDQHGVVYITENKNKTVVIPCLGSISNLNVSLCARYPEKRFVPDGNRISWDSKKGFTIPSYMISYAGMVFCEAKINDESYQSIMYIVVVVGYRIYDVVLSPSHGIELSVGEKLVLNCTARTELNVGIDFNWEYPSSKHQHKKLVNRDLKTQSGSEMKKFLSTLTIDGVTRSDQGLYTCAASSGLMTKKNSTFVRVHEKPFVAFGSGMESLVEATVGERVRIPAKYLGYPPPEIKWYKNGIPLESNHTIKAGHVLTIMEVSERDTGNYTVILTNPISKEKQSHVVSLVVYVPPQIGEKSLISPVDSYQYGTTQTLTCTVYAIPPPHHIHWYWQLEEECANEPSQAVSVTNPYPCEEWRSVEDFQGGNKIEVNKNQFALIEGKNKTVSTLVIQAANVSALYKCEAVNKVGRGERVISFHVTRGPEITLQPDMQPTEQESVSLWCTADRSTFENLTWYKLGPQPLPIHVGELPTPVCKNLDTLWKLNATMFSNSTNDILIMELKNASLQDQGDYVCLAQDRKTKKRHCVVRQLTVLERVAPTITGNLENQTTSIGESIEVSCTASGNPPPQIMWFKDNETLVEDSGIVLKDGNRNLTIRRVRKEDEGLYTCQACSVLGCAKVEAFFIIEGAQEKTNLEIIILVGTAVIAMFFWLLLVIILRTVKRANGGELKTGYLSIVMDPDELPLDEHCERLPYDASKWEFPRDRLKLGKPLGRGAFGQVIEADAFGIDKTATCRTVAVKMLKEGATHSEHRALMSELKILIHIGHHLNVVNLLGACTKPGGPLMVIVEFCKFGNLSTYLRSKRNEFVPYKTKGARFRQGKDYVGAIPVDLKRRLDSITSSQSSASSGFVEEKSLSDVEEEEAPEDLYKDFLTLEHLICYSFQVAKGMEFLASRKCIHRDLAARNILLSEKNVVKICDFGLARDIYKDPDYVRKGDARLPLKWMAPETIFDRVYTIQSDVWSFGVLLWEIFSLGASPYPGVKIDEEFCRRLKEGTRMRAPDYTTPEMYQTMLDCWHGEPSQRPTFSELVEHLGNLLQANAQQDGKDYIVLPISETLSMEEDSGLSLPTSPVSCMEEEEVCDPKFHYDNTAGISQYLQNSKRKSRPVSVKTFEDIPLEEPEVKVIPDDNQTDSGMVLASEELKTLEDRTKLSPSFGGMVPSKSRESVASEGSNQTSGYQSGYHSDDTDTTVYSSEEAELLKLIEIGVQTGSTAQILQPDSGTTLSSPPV

Experimental findings from US8426408B2, “Pyrimidine inhibitors of kinases” (AbbVie Inc., priority 2009, dated 2013) are described below.

For orientation: Ki means the equilibrium dissociation constant of an inhibitor or competing ligand from its target. What is called IC50 is the point on the concentration scale where inhibition reaches its midpoint. Consider `NC(=O)[C@@H]1[C@H](Nc2nc(Nc3cnn([C@@H]4CCOC4)c3)ncc2Br)[C@H]2C=C[C@@H]1C2` [Example 116, (1S,2S,3R,4R)-3-{[5-bromo-2-({1-[(3R)-tetrahydrofuran-3-yl]-1H-pyrazol-4-yl}amino)pyrimidin-4-yl]amino}bicyclo[2.2.1]hept-5-ene-2-carboxamide], for which the Ki on KDR [1] was less than 100 nM. In addition, the EC15 in the test with NCI-H1299 cells was less than 100 nM. Besides, the IC50 at KDR [2] was less than 100 nM.

With `NC(=O)[C@@H]1[C@H](Nc2nc(Nc3cnn(-c4ccccc4)c3)ncc2Cl)[C@H]2C=C[C@@H]1C2` [Example 174, (1S,2S,3R,4R)-3-({5-chloro-2-[(1-phenyl-1H-pyrazol-4-yl)amino]pyrimidin-4-yl}amino)bicyclo[2.2.1]hept-5-ene-2-carboxamide], the Ki at KDR [1] is less than 100 nM. Moreover, the EC15 with NCI-H1299 cells was less than 100 nM. Besides, at KDR [2], the IC50 was less than 100 nM.

As to `NC(=O)[C@@H]1[C@H](Nc2nc(Nc3cnn(CC4CCO4)c3)ncc2Cl)[C@H]2C=C[C@@H]1C2` (stereo partly drawn) [Example 129, (1S,2S,3R,4R)-3-[(5-chloro-2-{[1-(oxetan-2-ylmethyl)-1H-pyrazol-4-yl]amino}pyrimidin-4-yl)amino]bicyclo[2.2.1]hept-5-ene-2-carboxamide], the Ki on KDR [1] was less than 100 nM. For the same molecule, the EC15 in the test on NCI-H1299 cells is less than 100 nM. The IC50 on KDR [2] was less than 100 nM.

As to `Cn1cc(Nc2ncc(C(F)(F)F)c(N[C@H]3[C@@H](C(N)=O)C[C@H]4C[C@@H]3C4(C)C)n2)cn1` [Example 167, (1R,2R,3S,5R)-6,6-dimethyl-2-({2-[(1-methyl-1H-pyrazol-4-yl)amino]-5-(trifluoromethyl)pyrimidin-4-yl}amino)bicyclo[3.1.1]heptane-3-carboxamide], at KDR [1], the Ki is less than 100 nM. Besides, in the test with NCI-H1299 cells, the EC15 is less than 100 nM. Also, at KDR [2], the IC50 was 100 to 1000 nM.

Turning to `NC(=O)[C@@H]1[C@H](Nc2nc(Nc3cnn(CCc4ccccc4)c3)ncc2Br)[C@H]2C=C[C@@H]1C2` [Example 148, (1S,2S,3R,4R)-3-[(5-bromo-2-{[1-(2-phenylethyl)-1H-pyrazol-4-yl]amino}pyrimidin-4-yl)amino]bicyclo[2.2.1]hept-5-ene-2-carboxamide], the Ki at KDR [1] was less than 100 nM. Further, in the test with NCI-H1299 cells, the EC15 is less than 100 nM. On KDR [2], the IC50 was less than 100 nM.

Take `NC(=O)[C@@H]1[C@H](Nc2nc(Nc3cnn(Cc4cccc(Cl)c4)c3)ncc2Cl)[C@H]2C=C[C@@H]1C2` [Example 157, (1S,2S,3R,4R)-3-[(5-chloro-2-{[1-(3-chlorobenzyl)-1H-pyrazol-4-yl]amino}pyrimidin-4-yl)amino]bicyclo[2.2.1]hept-5-ene-2-carboxamide]: the Ki on KDR [1] was less than 100 nM. In the test with NCI-H1299 cells, the EC15 was less than 100 nM. The IC50 at KDR [2] is less than 100 nM.

`NC(=O)[C@@H]1[C@H](Nc2nc(Nc3cnn(CCc4cccc(Cl)c4)c3)ncc2Cl)[C@H]2C=C[C@@H]1C2` [Example 158, (1S,2S,3R,4R)-3-{[5-chloro-2-({1-[2-(3-chlorophenyl)ethyl]-1H-pyrazol-4-yl}amino)pyrimidin-4-yl]amino}bicyclo[2.2.1]hept-5-ene-2-carboxamide]: the Ki at KDR [1] is less than 100 nM. Besides, the EC15 with NCI-H1299 cells is less than 100 nM. Also, the IC50 at KDR [2] was 100 to 1000 nM.

`CCn1cc(Nc2ncc(Cl)c(N[C@@H]3[C@H](C(N)=O)[C@@H]4C=C[C@H]3C4)n2)cn1.CCn1cc(Nc2ncc(Cl)c(N[C@H]3[C@@H](C(N)=O)[C@H]4C=C[C@@H]3C4)n2)cn1` (mixture of isomers) [Example 121, (1S,2R,3S,4R)-3-({5-chloro-2-[(1-ethyl-1H-pyrazol-4-yl)amino]pyrimidin-4-yl}amino)bicyclo[2.2.1]hept-5-ene-2-carboxamide and (1R,2S,3R,4S)-3-({5-chloro-2-[(1-ethyl-1H-pyrazol-4-yl)amino]pyrimidin-4-yl}amino)bicyclo[2.2.1]hept-5-ene-2-carboxamide]: the Ki on KDR [1] is less than 100 nM. Further, in the test with NCI-H1299 cells, the “EC15 (concentration of inhibitor necessary to induce polyploidy in 15% of cells)” value is given as “A (“A” represents an EC15 of less than 0.1 μM)”. Also, the IC50 on KDR [2] is 100 to 1000 nM.

`CC(C)CCn1cc(Nc2ncc(Cl)c(N[C@H]3[C@@H](C(N)=O)[C@@H]4C=C[C@H]3C4)n2)cn1` [Example 99, (1S,2S,3R,4R)-3-[(5-chloro-2-[1-(3-methylbutyl)-1H-pyrazol-4-yl]aminopyrimidin-4-yl)amino]bicyclo[2.2.1]hept-5-ene-2-carboxamide]: the Ki at KDR [1] was less than 100 nM. The EC15 in the test with NCI-H1299 cells is less than 100 nM. The IC50 on KDR [2] was less than 100 nM.

In the case of `Cc1c(Nc2ncc(Br)c(N[C@H]3[C@@H](C(N)=O)[C@@H]4C=C[C@H]3C4)n2)cnn1C` [Example 170, (1S,2S,3R,4R)-3-({5-bromo-2-[(1,5-dimethyl-1H-pyrazol-4-yl)amino]pyrimidin-4-yl}amino)bicyclo[2.2.1]hept-5-ene-2-carboxamide], the Ki on KDR [1] is less than 100 nM. Further, the EC15 in the test on NCI-H1299 cells was less than 100 nM. Moreover, the IC50 at KDR [2] was less than 100 nM.

As for `COCCOCCn1cc(Nc2ncc(Br)c(N[C@H]3[C@@H](C(N)=O)[C@@H]4C=C[C@H]3C4)n2)cn1` [Example 110, (1S,2S,3R,4R)-3-{[5-bromo-2-({1-[2-(2-methoxyethoxy)ethyl]-1H-pyrazol-4-yl}amino)pyrimidin-4-yl]amino}bicyclo[2.2.1]hept-5-ene-2-carboxamide], the Ki on KDR [1] was less than 100 nM. In the test with NCI-H1299 cells, the EC15 was less than 100 nM. Also, the IC50 on KDR [2] is less than 100 nM.

In the case of `NC(=O)[C@@H]1[C@H](Nc2nc(Nc3cnn(-c4ccccc4)c3)ncc2Br)[C@H]2C=C[C@@H]1C2` [Example 173, (1S,2S,3R,4R)-3-({5-bromo-2-[(1-phenyl-1H-pyrazol-4-yl)amino]pyrimidin-4-yl}amino)bicyclo[2.2.1]hept-5-ene-2-carboxamide], at KDR [1], the Ki is less than 100 nM. Further, the EC15 in the test on NCI-H1299 cells is less than 100 nM. On KDR [2], the IC50 was less than 100 nM.

On to `CC(=O)N1CCC(n2cc(Nc3ncc(Cl)c(N[C@H]4[C@@H](C(N)=O)[C@@H]5C=C[C@H]4C5)n3)cn2)CC1` [Example 92, (1S,2S,3R,4R)-3-[(2-{[1-(1-acetylpiperidin-4-yl)-1H-pyrazol-4-yl]amino}-5-chloropyrimidin-4-yl)amino]bicyclo[2.2.1]hept-5-ene-2-carboxamide], for which the Ki at KDR [1] is less than 100 nM. In the test on NCI-H1299 cells, the EC15 is less than 100 nM. Moreover, at KDR [2], the IC50 was in the range of 100 to 1000 nM.

On to `CCn1cc(Nc2ncc([N+](=O)[O-])c(N[C@H]3[C@@H](C(N)=O)[C@@H]4C=C[C@H]3C4)n2)cn1` [Example 140, (1S,2S,3R,4R)-3-({2-[(1-ethyl-1H-pyrazol-4-yl)amino]-5-nitropyrimidin-4-yl}amino)bicyclo[2.2.1]hept-5-ene-2-carboxamide], for which the Ki at KDR [1] was less than 100 nM. Also, the EC15 with NCI-H1299 cells is less than 100 nM. For the same molecule, the IC50 at KDR [2] fell in the range of 100 to 1000 nM.

As to `CCn1cc(Nc2ncc(C(F)(F)F)c(N[C@H]3[C@@H](C(N)=O)C[C@H]4C[C@@H]3C4(C)C)n2)cn1` [Example 168, (1R,2R,3S,5R)-2-({2-[(1-ethyl-1H-pyrazol-4-yl)amino]-5-(trifluoromethyl)pyrimidin-4-yl}amino)-6,6-dimethylbicyclo[3.1.1]heptane-3-carboxamide], at KDR [1], the Ki is less than 100 nM. Besides, the EC15 in the test with NCI-H1299 cells was less than 100 nM. The IC50 at KDR [2] lay in the range of 100 to 1000 nM.
